Experimental data as given in patent US8853406B2, “Substituted phenylenediamines as inhibitors of the interaction between MDM2 and P53” (Janssen Pharmaceutica NV, priority 2007, dated 2014).

How the values were obtained:
[1] = Physical properties of the solid state forms; format: physicochemical
Method: Form I was denoted as a crystalline, non-hygroscopic solid that melts at approximately 192° C. Form II was described as a crystalline solid with a melting point at approximately 186° C.

[2] = Crystallographic stability of Form I (TGA, DSC, XRPD, IR after storage); format: physicochemical; design: key to XRD / IR: ~Ref: identical with reference; Cryst.: crystalline
Method: The crystallographic stability of Form I of compound No. 1 was studied according to the following procedure:
after storage of the compound in open conditions for a period of six weeks at room temperature (RT) under <5%, 56% and 75% relative humidity (RH), 50° C. and 40° C./75% RH., the samples were analyzed with thermogravimetry (TGA), differential scanning calorimetry (DSC), X-ray powder diffraction (XRPD) and infrared spectroscopy (IR).

[3] = Chemical stability of Form I (HPLC and visual inspection after storage); format: physicochemical
Method: The chemical stability of Form I of compound No. 1 was studied according to the following procedure:
Form I was stored in different open conditions for periods of 1, 4 and 8 weeks. These conditions are 40° C./75% RH, 50° C., RT/<5% RH, RT/56% RH, RT/75% RH and 0.3 da ICH light.
The compounds were analyzed after storage by HPLC and by visual inspection.

[4] = Slurry conversion experiment; format: physicochemical; conditions: various solvents, 50° C., 24 hours
Method: Concentrated/saturated solutions of compound No. 1 drug substance were prepared at 50° C. in 13 different solvents (water, methanol, ethanol, 2-propanol, acetone, acetonitrile, toluene, tetrahydrofuran, dichloromethane, 2-butanone, ethyl acetate, dimethylformamide, 1-methoxy-2-propanol) to support the automated polymorph screen. […] The slurry solids were retrieved from their solvent systems, dried under an air stream, placed under vacuum at room temperature overnight, and then analyzed for slurry conversion using XRD.

p53 in A2780 cells = test: p53 ELISA in A2780 cells (capacity to preserve p53); format: cell-based; conditions: lowest dose giving at least 140% of the p53 value of the control, 16 hours
Method: The capacity of the compounds to preserve p53 in A2780 cells was measured with the p53 enzyme linked immunosorbent assay. The p53 assay is a “sandwich” enzyme immunoassay employing two polyclonal antibodies. A polyclonal antibody, specific for the p53 protein, has been immobilized onto the surface of the plastic wells. Any p53 present in the sample to be assayed will bind to the capture antibody. The biotinylated detector polyclonal antibody also recognizes p53 protein, and will bind to any p53, which has been retained by the capture antibody. The detector antibody, in turn, is bond by horseradish peroxidase-conjugated streptavidin. The horseradish peroxidase catalyses the conversion of the chromogenic substrate o-phenylene diamine, the intensity of which is proportional to the amount of p53 protein bond to the plate. The colored reaction product is quantified using a spectrophotometer. Quantitation is achieved by the construction of a standard curve using known concentrations of purified recombinant HIS tagged p53 protein (see example C.1.).
A2780 cells (ATCC) were cultivated in RPMI 1640 supplemented with 10% fetal calf serum (FCS), 2 mM L-glutamine and gentamycin at 37° C. in a humidified incubator with 5% CO2.
A2780 cells were seeded at 20.000 cells per well in a 96 well plate, cultured for 24 hours and treated with compound for 16 hours at 37° C. in a humidified incubator. After incubation, the cells were washed once with phosphate-buffered saline and 30 μl, per well, low salt RIPA buffer (20 mM tris, pH7.0, 0.5 mM EDTA, 1% Nonidet P40, 0.5% DOC, 0.05% SDS, 1 mM PMSF, 1 μg/ml aprotinin and 0.5 μ/ml leupeptin) was added. Plates were placed on ice for 30 minutes to complete the lysis. p53 protein was detected in de lysates by using the sandwich ELISA, described below.
High binding polystyrene EIA/RIA 96 well plates (Costar 9018) were coated with the capture antibody pAb1801 (Abcam ab28-100) at a concentration of 1 μg/ml in coating buffer (0.1 M NaHCO3 pH8.2), 50 μl per well. The antibody was allowed to adhere overnight at 4° C. Coated plates were washed once with phosphate-buffered saline (PBS)/0.05% Tween 20 and 300 μl of blocking buffer (PBS, 1% bovine serum albumins (BSA)) was added, for an incubation period of 2 hours at room temperature. Dilutions of purified recombinant HIS tagged p53 protein, ranging from 3-200 ng/ml, were made in blocking buffer and used as standards.
Plates were washed twice with PBS/0.05% Tween 20 and blocking buffer or standards were added at 80 μl/well. To the standards, 20 μl of lysis buffer was added. The samples were added to the other wells at 20 μl lysate/well. After an overnight incubation at 4° C., plates were washed twice with PBS/0.05% Tween 20. Aliquots of 100 μl secondary polyclonal antibody p53(FL-393) (Tebubio, sc-6243) at a concentration of 1 μg/ml in blocking buffer were added to each well and allowed to adhere for 2 hours at room temperature. Plates were washed three times with PBS/0.05% Tween 20. Detection antibody anti-rabbit HRP (sc-2004, Tebubio) at 0.04 μg/ml in PBS/1% BSA was added and incubated for 1 hour at room temperature. Plates were washed three times with PBS/0.05% Tween 20 and 100 μl of substrate buffer was added (substrate buffer was prepared shortly before use by adding 1 tablet of 10 mg o-phenylene diamine (OPD) from Sigma and 125 μl 3% H2O2 to 25 ml OPD buffer: 35 mM citric acid, 66 mM Na2HPO4, pH5.6). After 5 to 10 minutes, colour reaction was stopped by adding 50 μl stop buffer (1 M H2SO4) per well. The absorbance at dual wavelengths of 490/655 nm was measured using a Biorad micro plate reader and the results were then analyzed.
For each experiment, controls (containing no drug) and a blank incubation (containing no cells or drugs) were run in parallel. The blank value was subtracted from all control and sample values. For each sample, the value of p53 (in absorbance units) was expressed as the percentage of the value for p53 present in the control. […]

SMILES: Cc1cc(Nc2ccnc3c2CCC3O)ccc1NCCc1c[nH]c2c(C)cccc12 (stereo not drawn) [Form I]
- hygroscopicity [1]: non-hygroscopic
- App ([2]; 0 days): brown-grey
- DSC Max ([2]; 0 days): 192.1 °C
- DSC ΔH ([2]; 0 days): 122 J/g
- IR ([2]; 0 days): Cryst., Ref
- TGA <175° C. ([2]; 0 days): 0.05%
- TGA <225° C. ([2]; 0 days): 0.19%
- XRD ([2]; 0 days): Cryst., Ref
- crystallographic stability ([2]; open storage six weeks, all conditions): crystallographically stable
- App ([2]; six weeks open, 40° C./75% RH): brown-grey
- DSC Max ([2]; six weeks open, 40° C./75% RH): 191.7 °C
- DSC ΔH ([2]; six weeks open, 40° C./75% RH): 123 J/g
- IR ([2]; six weeks open, 40° C./75% RH): ~Ref
- TGA <175° C. ([2]; six weeks open, 40° C./75% RH): 0.06%
- TGA <225° C. ([2]; six weeks open, 40° C./75% RH): 0.19%
- XRD ([2]; six weeks open, 40° C./75% RH): ~Ref
- App ([2]; six weeks open, 50° C.): brown-grey
- DSC Max ([2]; six weeks open, 50° C.): 191.6 °C
- DSC ΔH ([2]; six weeks open, 50° C.): 122 J/g
- IR ([2]; six weeks open, 50° C.): ~Ref
- TGA <175° C. ([2]; six weeks open, 50° C.): 0%
- TGA <225° C. ([2]; six weeks open, 50° C.): 0.2%
- XRD ([2]; six weeks open, 50° C.): ~Ref
- App ([2]; six weeks open, RT/56% RH): brown-grey
- DSC Max ([2]; six weeks open, RT/56% RH): 191.8 °C
- DSC ΔH ([2]; six weeks open, RT/56% RH): 108 J/g
- IR ([2]; six weeks open, RT/56% RH): ~Ref
- TGA <175° C. ([2]; six weeks open, RT/56% RH): 0.15%
- TGA <225° C. ([2]; six weeks open, RT/56% RH): 0.2%
- XRD ([2]; six weeks open, RT/56% RH): ~Ref
- App ([2]; six weeks open, RT/75 % RH): brown-grey
- DSC Max ([2]; six weeks open, RT/75 % RH): 191.7 °C
- DSC ΔH ([2]; six weeks open, RT/75 % RH): 112 J/g
- IR ([2]; six weeks open, RT/75 % RH): ~Ref
- TGA <175° C. ([2]; six weeks open, RT/75 % RH): 0.14%
- TGA <225° C. ([2]; six weeks open, RT/75 % RH): 0.25%
- XRD ([2]; six weeks open, RT/75 % RH): ~Ref
- App ([2]; six weeks open, RT/<5% RH): brown-grey
- DSC Max ([2]; six weeks open, RT/<5% RH): 191.7 °C
- DSC ΔH ([2]; six weeks open, RT/<5% RH): 125 J/g
- IR ([2]; six weeks open, RT/<5% RH): ~Ref
- TGA <175° C. ([2]; six weeks open, RT/<5% RH): 0%
- TGA <225° C. ([2]; six weeks open, RT/<5% RH): 0.31%
- XRD ([2]; six weeks open, RT/<5% RH): ~Ref
- Appearance ([3]; 0.3da ICH light (1 week)): brown-grey
- HPLC Sum of impurities ([3]; 0.3da ICH light (1 week)): 0.18%
- Appearance ([3]; 40° C./75% RH, 1 week): brown-grey
- HPLC Sum of impurities ([3]; 40° C./75% RH, 1 week): 0.13%
- Appearance ([3]; 40° C./75% RH, 4 weeks): brown-grey
- HPLC Sum of impurities ([3]; 40° C./75% RH, 4 weeks): 0.14%
- Appearance ([3]; 40° C./75% RH, 8 weeks): brown-grey
- HPLC Sum of impurities ([3]; 40° C./75% RH, 8 weeks): 0.2%
- Appearance ([3]; 50° C., 1 week): brown-grey
- HPLC Sum of impurities ([3]; 50° C., 1 week): 0.28%
- Appearance ([3]; 50° C., 4 weeks): brown-grey
- HPLC Sum of impurities ([3]; 50° C., 4 weeks): 0.14%
- Appearance ([3]; 50° C., 8 weeks): brown-grey
- HPLC Sum of impurities ([3]; 50° C., 8 weeks): 0.24%
- Appearance ([3]; RT/56% RH, 4 weeks): brown-grey
- HPLC Sum of impurities ([3]; RT/56% RH, 4 weeks): 0.22%
- Appearance ([3]; RT/56% RH, 8 weeks): brown-grey
- HPLC Sum of impurities ([3]; RT/56% RH, 8 weeks): 0.24%
- Appearance ([3]; RT/75% RH, 4 weeks): brown-grey
- HPLC Sum of impurities ([3]; RT/75% RH, 4 weeks): 0.2%
- Appearance ([3]; RT/75% RH, 8 weeks): brown-grey
- HPLC Sum of impurities ([3]; RT/75% RH, 8 weeks): 0.18%
- Appearance ([3]; RT/<5% RH, 4 weeks): brown-grey
- HPLC Sum of impurities ([3]; RT/<5% RH, 4 weeks): 0.19%
- Appearance ([3]; RT/<5% RH, 8 weeks): brown-grey
- HPLC Sum of impurities ([3]; RT/<5% RH, 8 weeks): 0.24%
- Appearance ([3]; Reference (1 week)): brown-grey
- HPLC Sum of impurities ([3]; Reference (1 week)): 0.23%
- chemical stability ([3]; open storage 1, 4 and 8 weeks, all investigated conditions): chemically stable in all investigated conditions
- form conversion when slurried [4]: No form conversion was observed

SMILES: Cc1cc(Nc2ccnc3c2CCC3O)ccc1NCCc1c[nH]c2c(C)cccc12 (stereo not drawn) [compound 3]
- A2780 p53-elisa LAD (p53 in A2780 cells): 1.00E-07
